{"source": "ChEMBL document CHEMBL4007467", "about": "“Effects of 6-paradol, an unsaturated ketone from gingers, on cytochrome P450-mediated drug metabolism” (Bioorg Med Chem Lett, 2017)", "format_in_all_cases": "ADME", "key": {"CYP2A6 [1]": {"target": "T1, CYP2A6 (Homo sapiens, UniProt P11509)", "T1 sequence (P11509 whole entry)": "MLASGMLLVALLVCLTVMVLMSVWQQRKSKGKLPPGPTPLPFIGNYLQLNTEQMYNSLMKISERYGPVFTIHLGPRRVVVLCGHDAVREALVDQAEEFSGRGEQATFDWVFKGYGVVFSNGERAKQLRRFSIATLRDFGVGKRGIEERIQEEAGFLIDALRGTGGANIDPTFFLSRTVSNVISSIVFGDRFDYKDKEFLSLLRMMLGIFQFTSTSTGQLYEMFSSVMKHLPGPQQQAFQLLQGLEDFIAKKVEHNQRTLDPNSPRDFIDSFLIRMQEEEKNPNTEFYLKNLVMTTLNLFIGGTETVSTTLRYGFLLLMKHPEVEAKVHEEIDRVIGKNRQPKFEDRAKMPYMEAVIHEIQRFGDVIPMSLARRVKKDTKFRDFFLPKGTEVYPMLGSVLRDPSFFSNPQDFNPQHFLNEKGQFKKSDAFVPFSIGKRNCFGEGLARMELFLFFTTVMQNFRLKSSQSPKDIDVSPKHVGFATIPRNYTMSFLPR", "assay": "Inhibition of CYP2A6 in human liver microsomes assessed as enzyme-mediated metabolite formation at 3 uM using coumarin as substrate incubated for 5 mins followed by NADPH addition measured after 30 mins by LC-MS/MS analysis relative to control", "design": "scale not given: the % may be the effect or the level left", "details": "probe coumarin, read-out: Activity"}, "CYP2A6 [2]": {"target": "T1, CYP2A6", "assay": "Inhibition of CYP2A6 in human liver microsomes assessed as enzyme-mediated metabolite formation at 10 uM using coumarin as substrate incubated for 5 mins followed by NADPH addition measured after 30 mins by LC-MS/MS analysis relative to control", "design": "scale not given: the % may be the effect or the level left", "details": "probe coumarin, read-out: Activity"}, "Cytochrome P450 2C8": {"target": "T2, Cytochrome P450 2C8 (Homo sapiens, UniProt P10632)", "T2 sequence (P10632 whole entry)": "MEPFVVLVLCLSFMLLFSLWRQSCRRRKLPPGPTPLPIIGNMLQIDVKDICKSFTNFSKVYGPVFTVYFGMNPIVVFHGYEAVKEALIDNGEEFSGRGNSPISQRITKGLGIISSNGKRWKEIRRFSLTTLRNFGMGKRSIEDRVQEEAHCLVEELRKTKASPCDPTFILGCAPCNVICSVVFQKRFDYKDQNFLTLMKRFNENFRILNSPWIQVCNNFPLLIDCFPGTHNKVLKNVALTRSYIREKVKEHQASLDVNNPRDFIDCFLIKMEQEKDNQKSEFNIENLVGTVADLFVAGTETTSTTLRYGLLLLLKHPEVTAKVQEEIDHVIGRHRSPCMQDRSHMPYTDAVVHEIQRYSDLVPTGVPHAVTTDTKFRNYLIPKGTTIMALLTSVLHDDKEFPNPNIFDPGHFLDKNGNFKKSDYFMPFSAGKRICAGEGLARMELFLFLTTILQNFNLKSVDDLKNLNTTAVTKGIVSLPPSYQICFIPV", "assay": "Inhibition of CYP2C8 in human liver microsomes assessed as enzyme-mediated metabolite formation using paclitaxel as substrate incubated for 5 mins followed by NADPH addition measured after 30 mins by LC-MS/MS analysis"}, "CYP2C9 [3]": {"target": "T3, CYP2C9 (Homo sapiens, UniProt P11712)", "T3 sequence (P11712 whole entry)": "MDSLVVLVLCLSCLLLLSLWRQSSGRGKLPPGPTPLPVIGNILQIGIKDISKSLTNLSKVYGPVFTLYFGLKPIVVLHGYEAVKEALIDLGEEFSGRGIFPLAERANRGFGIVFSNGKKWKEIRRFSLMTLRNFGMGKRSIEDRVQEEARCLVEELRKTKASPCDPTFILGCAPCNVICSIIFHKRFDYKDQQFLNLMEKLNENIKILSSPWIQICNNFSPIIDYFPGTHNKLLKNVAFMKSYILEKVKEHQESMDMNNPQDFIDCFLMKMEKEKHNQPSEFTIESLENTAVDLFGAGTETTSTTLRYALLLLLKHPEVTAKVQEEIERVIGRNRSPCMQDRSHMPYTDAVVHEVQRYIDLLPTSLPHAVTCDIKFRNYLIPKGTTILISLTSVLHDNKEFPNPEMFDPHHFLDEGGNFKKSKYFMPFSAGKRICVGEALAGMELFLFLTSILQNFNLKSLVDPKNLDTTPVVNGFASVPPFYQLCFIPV", "assay": "Inhibition of CYP2C9 in human liver microsomes assessed as enzyme-mediated metabolite formation at 0.3 uM using diclofenac as substrate incubated for 5 mins followed by NADPH addition measured after 30 mins by LC-MS/MS analysis relative to control", "design": "scale not given: the % may be the effect or the level left", "details": "probe diclofenac, read-out: Activity"}, "CYP2C9 [4]": {"target": "T3, CYP2C9", "assay": "Inhibition of CYP2C9 in human liver microsomes assessed as enzyme-mediated metabolite formation at 3 uM using diclofenac as substrate incubated for 5 mins followed by NADPH addition measured after 30 mins by LC-MS/MS analysis relative to control", "design": "scale not given: the % may be the effect or the level left", "details": "probe diclofenac, read-out: Activity"}, "CYP2D6": {"target": "CYP2D6 (Homo sapiens, UniProt P10635)", "sequence (P10635 whole entry)": "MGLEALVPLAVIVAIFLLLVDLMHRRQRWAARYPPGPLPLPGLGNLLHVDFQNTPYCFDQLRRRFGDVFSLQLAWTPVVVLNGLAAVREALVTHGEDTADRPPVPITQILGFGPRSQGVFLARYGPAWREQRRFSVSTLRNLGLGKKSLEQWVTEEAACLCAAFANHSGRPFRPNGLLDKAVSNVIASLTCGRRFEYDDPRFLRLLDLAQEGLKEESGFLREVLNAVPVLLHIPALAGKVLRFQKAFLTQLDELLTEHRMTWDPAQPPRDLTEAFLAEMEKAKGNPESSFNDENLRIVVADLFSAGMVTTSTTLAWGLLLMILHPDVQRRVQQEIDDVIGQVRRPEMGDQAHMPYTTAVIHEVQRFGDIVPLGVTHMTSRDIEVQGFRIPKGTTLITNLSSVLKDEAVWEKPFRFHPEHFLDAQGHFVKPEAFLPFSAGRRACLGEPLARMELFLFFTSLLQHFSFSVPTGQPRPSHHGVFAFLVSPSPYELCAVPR", "assay": "Inhibition of CYP2D6 in human liver microsomes assessed as enzyme-mediated metabolite formation at 10 uM using dextromethorphan as substrate incubated for 5 mins followed by NADPH addition measured after 30 mins by LC-MS/MS analysis relative to control", "design": "scale not given: the % may be the effect or the level left", "details": "probe dextromethorphan, read-out: Activity"}, "CYP2C19 [5]": {"target": "T4, CYP2C19 (Homo sapiens, UniProt P33261)", "T4 sequence (P33261 whole entry)": "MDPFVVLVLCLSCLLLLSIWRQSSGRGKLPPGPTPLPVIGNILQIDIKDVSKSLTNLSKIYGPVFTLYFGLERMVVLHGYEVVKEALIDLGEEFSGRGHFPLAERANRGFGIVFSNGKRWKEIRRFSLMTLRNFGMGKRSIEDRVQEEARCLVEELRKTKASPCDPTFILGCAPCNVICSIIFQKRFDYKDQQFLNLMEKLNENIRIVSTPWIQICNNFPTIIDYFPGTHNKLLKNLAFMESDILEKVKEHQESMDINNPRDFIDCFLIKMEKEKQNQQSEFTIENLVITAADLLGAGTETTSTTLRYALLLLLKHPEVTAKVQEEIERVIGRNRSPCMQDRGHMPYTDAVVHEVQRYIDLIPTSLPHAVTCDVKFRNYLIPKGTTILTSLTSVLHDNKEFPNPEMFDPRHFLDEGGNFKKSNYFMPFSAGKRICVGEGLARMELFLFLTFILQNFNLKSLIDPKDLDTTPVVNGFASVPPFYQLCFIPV", "assay": "Inhibition of CYP2C19 in human liver microsomes assessed as enzyme-mediated metabolite formation at 1 uM using (S)-mephenytoin as substrate preincubated for 20 mins followed by substrate addition measured after 30 mins in presence of NADPH by LC-MS/MS analysis relative to control", "design": "scale not given: the % may be the effect or the level left", "details": "probe (S)-mephenytoin, read-out: Activity"}, "CYP2C19 [6]": {"target": "T4, CYP2C19", "assay": "Inhibition of CYP2C19 in human liver microsomes assessed as enzyme-mediated metabolite formation at 3 uM using (S)-mephenytoin as substrate preincubated for 20 mins followed by substrate addition measured after 30 mins in presence of NADPH by LC-MS/MS analysis relative to control", "design": "scale not given: the % may be the effect or the level left", "details": "probe (S)-mephenytoin, read-out: Activity"}, "CYP2C19 [7]": {"target": "T4, CYP2C19", "assay": "Inhibition of CYP2C19 in human liver microsomes assessed as enzyme-mediated metabolite formation at 10 uM using (S)-mephenytoin as substrate preincubated for 20 mins followed by substrate addition measured after 30 mins in presence of NADPH by LC-MS/MS analysis relative to control", "design": "scale not given: the % may be the effect or the level left", "details": "probe (S)-mephenytoin, read-out: Activity"}, "Cytochrome P450 2C19": {"target": "Cytochrome P450 2C19 (Homo sapiens, UniProt P33261)", "sequence (P33261 whole entry)": "as above", "assay": "Inhibition of CYP2C19 in human liver microsomes using (S)-mephenytoin as substrate preincubated for 20 mins followed by substrate addition measured after 30 mins in presence of NADPH by LC-MS/MS analysis"}, "Cytochrome P450 3A4 [8]": {"target": "T5, Cytochrome P450 3A4 (Homo sapiens, UniProt P08684)", "T5 sequence (P08684 whole entry)": "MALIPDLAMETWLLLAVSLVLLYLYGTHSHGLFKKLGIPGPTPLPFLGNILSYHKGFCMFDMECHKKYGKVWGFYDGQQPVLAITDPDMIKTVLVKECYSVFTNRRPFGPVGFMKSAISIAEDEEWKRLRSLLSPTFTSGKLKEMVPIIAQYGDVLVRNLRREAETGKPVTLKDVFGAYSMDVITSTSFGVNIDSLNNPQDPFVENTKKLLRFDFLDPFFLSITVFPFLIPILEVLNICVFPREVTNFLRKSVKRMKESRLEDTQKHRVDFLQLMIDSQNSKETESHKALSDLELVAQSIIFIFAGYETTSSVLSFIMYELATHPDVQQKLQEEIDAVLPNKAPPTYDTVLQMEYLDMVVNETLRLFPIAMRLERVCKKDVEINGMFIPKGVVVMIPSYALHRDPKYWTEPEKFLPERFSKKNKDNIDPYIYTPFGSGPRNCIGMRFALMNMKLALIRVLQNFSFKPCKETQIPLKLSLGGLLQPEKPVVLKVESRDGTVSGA", "assay": "Inhibition of CYP3A4 in human liver microsomes using midazolam as substrate preincubated for 20 mins followed by substrate addition measured after 30 mins in presence of NADPH by LC-MS/MS analysis"}, "CYP3A4 [9]": {"target": "T6, CYP3A4 (Homo sapiens, UniProt P08684)", "T6 sequence (P08684 whole entry)": "as above", "assay": "Inhibition of CYP3A4 in human liver microsomes assessed as enzyme-mediated metabolite formation at 1 uM using testosterone as substrate preincubated for 20 mins followed by substrate addition measured after 30 mins in presence of NADPH by LC-MS/MS analysis relative to control", "design": "scale not given: the % may be the effect or the level left", "details": "probe testosterone, read-out: Activity"}, "CYP3A4 [10]": {"target": "T6, CYP3A4", "assay": "Inhibition of CYP3A4 in human liver microsomes assessed as enzyme-mediated metabolite formation at 30 uM using testosterone as substrate preincubated for 20 mins followed by substrate addition measured after 30 mins in presence of NADPH by LC-MS/MS analysis relative to control", "design": "scale not given: the % may be the effect or the level left", "details": "probe testosterone, read-out: Activity"}, "Cytochrome P450 3A4 [11]": {"target": "T5, Cytochrome P450 3A4", "assay": "Inhibition of CYP3A4 in human liver microsomes using testosterone as substrate preincubated for 20 mins followed by substrate addition measured after 30 mins in presence of NADPH by LC-MS/MS analysis"}}, "note": "pIC50: −log10 of the molar value.", "data": [{"smiles": "CCCCCCCC(=O)CCc1ccc(O)c(OC)c1", "values": [{"measurement": "activity at 0.5 h, 3 µM", "setting": "CYP2A6 [1]", "value": 80.8, "unit": "%"}, {"measurement": "activity at 0.5 h, 10 µM", "setting": "CYP2A6 [2]", "value": 81.5, "unit": "%"}, {"measurement": "pIC50", "setting": "Cytochrome P450 2C8", "value": 5.29}, {"measurement": "activity at 0.5 h, 0.3 µM", "setting": "CYP2C9 [3]", "value": 93.6, "unit": "%"}, {"measurement": "activity at 0.5 h, 3 µM", "setting": "CYP2C9 [4]", "value": 68.1, "unit": "%"}, {"measurement": "activity at 0.5 h, 10 µM", "setting": "CYP2D6", "value": 60.4, "unit": "%"}, {"measurement": "activity at 0.5 h, 1 µM", "setting": "CYP2C19 [5]", "value": 72.1, "unit": "%"}, {"measurement": "activity at 0.5 h, 3 µM", "setting": "CYP2C19 [6]", "value": 67.6, "unit": "%"}, {"measurement": "activity at 0.5 h, 10 µM", "setting": "CYP2C19 [7]", "value": 44.5, "unit": "%"}, {"measurement": "pIC50", "setting": "Cytochrome P450 2C19", "value": 5.44}, {"measurement": "pIC50", "setting": "Cytochrome P450 3A4 [8]", "value": "< 4.52"}, {"measurement": "activity at 0.5 h, 1 µM", "setting": "CYP3A4 [9]", "value": 89.8, "unit": "%"}, {"measurement": "activity at 0.5 h, 30 µM", "setting": "CYP3A4 [10]", "value": 62.3, "unit": "%"}, {"measurement": "pIC50", "setting": "Cytochrome P450 3A4 [11]", "value": "< 4.52"}]}]}
